Structures can show the parent of a compound that is named as a salt. Where two headings read alike, the source gives them in different places. Values belong to the molecule of their own block, whether it stands above or below them.
Assays:
[1] = tested on: JAK1 and JAK3 kinases; experiment: Ramos B-cell line stimulated with IL-4, CD23 upregulation (FACS); assay type: cell-based, human
Protocol: One means of assaying for JAK inhibition is detection of the effect of compounds I and II on the upregulation of downstream gene products. In the Ramos/IL4 assay, B-cells are stimulated with the cytokine Interleukin-4 (IL-4) leading to the activation of the JAK/Stat pathway through phosphorylation of the JAK family kinases, JAK1 and JAK3, which in turn phosphorylate and activate the transcription factor Stat-6. […] Twenty to 24 hours post stimulation, cells are stained for upregulation of CD23 and analyzed using flow cytometry (FACS). […] An exemplary assay of this type is described in greater detail below. B-cells stimulated with cytokine Interleukin-4 (IL-4) activate the JAK/Stat pathway through phosphorylation of the JAK family kinases, JAK-1 and JAK-3, which in turn phosphorylate and activate the transcription factor Stat-6. […] To study the effect of inhibitors on the JAK family kinases, human Ramos B cells are stimulated with human IL-4. The Ramos B-cell line was acquired from [NT] No. CRL-1596). The cells were cultured in RPMI 1640 (Cellgro, MediaTech, Inc., Herndon, Va., Cat No. 10-040-CM) with 10% fetal bovine serum (FBS), heat inactivated (JRH Biosciences, Inc, Lenexa, Kans., Cat No. 12106-500M) according to ATCC propagation protocol. Cells were maintained at a density of 3.5×10^5. The day before the experiment, Ramos B-cells were diluted to 3.5×10^5 cells/mL to ensure that they were in a logarithmic growth phase. Cells were spun down and suspended in RPMI with 5% serum. 5×10^4 cells were used per point in a 96-well tissue culture plate. Cells were pre-incubated with compound or DMSO (Sigma-Aldrich, St. Louis, Mo., Cat No. D2650) vehicle control for 1 hour in a 37° C. incubator. Cells were then stimulated with IL-4 (Peprotech Inc., Rocky Hill, N.J., Cat No. 200-04) for a final concentration of 50 units/mL for 20-24 hours. Cells were then spun down and stained with anti-CD23-PE(BD Pharmingen, San Diego, Calif., Cat No. 555711) and analyzed by FACS. Detection was performed using a BD LSR I System Flow Cytometer, purchased from Becton Dickinson Biosciences of San Jose, Calif.

[2] = tested on: primary human T-cells; experiment: Primary human T-cell proliferation assay stimulated with IL-2 (CellTiter-Glo); assay type: cell-based; details: read-out: Example 4 IC50
Text: In this assay, primary human T-cells derived from peripheral blood and pre-activated through stimulation of the T-cell receptor and CD28, proliferate in culture in response to the cytokine Interleukin-2 (IL-2). This proliferative response is dependent on the activation of JAK1 and JAK3 tyrosine kinases, which phosphorylate and activate the transcription factor Stat-5. […] A reduction in cell proliferation compared to control conditions is indicative of inhibition of the JAK kinase pathway. An exemplary assay of this type is described in greater detail below.
Primary human T-cells derived from peripheral blood and pre-activated through stimulation of the T-cell receptor and CD28, proliferate in vitro in response to the cytokine Interleukin-2 (IL-2). This proliferative response is dependent on the activation of JAK-1 and JAK-3 tyrosine kinases, which phosphorylate and activate the transcription factor Stat-5.
Human primary T cells were prepared as follows. […] The lymphocytes at the serum: ficoll interface were recovered and washed twice with 5 volumes of PBS. […] The primary T-cells were stimulated for 3-4 days, then transferred to a fresh flask and maintained in RPMI with 10% FBS and 40 U/mL IL-2.
Primary T-cells were washed twice with PBS to remove the IL-2 and resuspended in Yssel's medium at 2×10^6 cells/mL. 50 μL of cell suspension containing 80 U/mL IL-2 was added to each well of a flat bottom 96 well black plate. For the unstimulated control, IL-2 was omitted from the last column on the plate. […] 50 μL of 2× compound was added per well in duplicate and the cells were allowed to proliferate for 72 hours at 37° C.
Proliferation was measured using CellTiter-Glo® Luminescent Cell Viability Assay (Promega), which determines the number of viable cells in culture based on quantitation of the ATP present, as an indicator of metabolically active cells. The substrate was thawed and allowed to come to room temperature. After mixing the Cell Titer-Glo reagent and diluent together, 100 μL was added to each well. […]

[3] = tested on: JAK/Stat pathway; experiment: U937 IFNγ ICAM1 FACS assay; assay type: cell-based, human; details: U937 cells, IFNγ 10 ng/mL, 18-24 hours, ICAM-1 expression; read-out: Example 6 IC50
Protocol: U937 human monocytic cells up-regulate ICAM-1 (CD54) surface expression in response to a variety of different stimuli. Therefore, using ICAM-1 expression as readout, compound effects on different signaling pathways can be assessed in the same cell type. IFNγ up-regulates ICAM-1 through activation of the JAK/Stat pathway. In this example, the up-regulation of ICAM-1 by IFNγ was assessed.
U937 cells were grown in 10% RPMI. The cells were then plated at a concentration of 100,000 cells per 160 μL in 96 well flat bottom plates. […] Then 4 μL of test compound was transferred to 76 μL of 10% RPMI resulting in a 10× solution (100 μM test compound, 5% DMSO). For control wells, 4 μL of DMSO was diluted into 76 μL 10% RPMI.
The assay was performed in duplicate with 8 points (8 3-fold dilution concentrations from […]) and with 4 wells of DMSO only (control wells) under stimulated conditions and 4 wells of DMSO only under unstimulated conditions.
The diluted compound plate was mixed 2× using a multimek (Beckman Coulter of Brea, Calif.) and then 20 μL of the diluted compounds was transferred to the 96 well plate containing 160 μL of cells, which were then mixed again twice at low speeds. The cells and compounds were then pre-incubated for 30 minutes at 37° C. with 5% CO2.
The 10× stimulation mix was made by preparing a 100 ng/mL solution of human IFNγ in 10% RPMI. […] The cells were kept under conditions for stimulation for 18-24 hours at 37° C. with 5% CO2.
The cells were transferred to a 96 well round bottom plate for staining and then kept on ice for the duration of the staining procedure. Cells were spun down at 1000 rpm for 5 minutes at 4° C., following which the supernatant was removed. Following removal of the supernatant, 1 μL APC conjugated mouse anti-human ICAM-1 antibody was added per 100 μL FACS buffer. The cells were then incubated on ice in the dark for 30 minutes. Following incubation, 150 μL of FACS buffer was added and the cells were centrifuged at 1000 rpm for 5 minutes at 4° C., following which the supernatant was removed. […]
Both % live cells and ICAM-1 expression was analyzed. […]

[4] = molecular target: T1, JAK3 (Homo sapiens, UniProt P52333); experiment: Human cell based assay against JAK3; details: human cell based assays; read-out: half maximal effective concentration (EC50) against JAK3
T1 construct: endogenous in cells
T1 sequence (P52333 1-1124): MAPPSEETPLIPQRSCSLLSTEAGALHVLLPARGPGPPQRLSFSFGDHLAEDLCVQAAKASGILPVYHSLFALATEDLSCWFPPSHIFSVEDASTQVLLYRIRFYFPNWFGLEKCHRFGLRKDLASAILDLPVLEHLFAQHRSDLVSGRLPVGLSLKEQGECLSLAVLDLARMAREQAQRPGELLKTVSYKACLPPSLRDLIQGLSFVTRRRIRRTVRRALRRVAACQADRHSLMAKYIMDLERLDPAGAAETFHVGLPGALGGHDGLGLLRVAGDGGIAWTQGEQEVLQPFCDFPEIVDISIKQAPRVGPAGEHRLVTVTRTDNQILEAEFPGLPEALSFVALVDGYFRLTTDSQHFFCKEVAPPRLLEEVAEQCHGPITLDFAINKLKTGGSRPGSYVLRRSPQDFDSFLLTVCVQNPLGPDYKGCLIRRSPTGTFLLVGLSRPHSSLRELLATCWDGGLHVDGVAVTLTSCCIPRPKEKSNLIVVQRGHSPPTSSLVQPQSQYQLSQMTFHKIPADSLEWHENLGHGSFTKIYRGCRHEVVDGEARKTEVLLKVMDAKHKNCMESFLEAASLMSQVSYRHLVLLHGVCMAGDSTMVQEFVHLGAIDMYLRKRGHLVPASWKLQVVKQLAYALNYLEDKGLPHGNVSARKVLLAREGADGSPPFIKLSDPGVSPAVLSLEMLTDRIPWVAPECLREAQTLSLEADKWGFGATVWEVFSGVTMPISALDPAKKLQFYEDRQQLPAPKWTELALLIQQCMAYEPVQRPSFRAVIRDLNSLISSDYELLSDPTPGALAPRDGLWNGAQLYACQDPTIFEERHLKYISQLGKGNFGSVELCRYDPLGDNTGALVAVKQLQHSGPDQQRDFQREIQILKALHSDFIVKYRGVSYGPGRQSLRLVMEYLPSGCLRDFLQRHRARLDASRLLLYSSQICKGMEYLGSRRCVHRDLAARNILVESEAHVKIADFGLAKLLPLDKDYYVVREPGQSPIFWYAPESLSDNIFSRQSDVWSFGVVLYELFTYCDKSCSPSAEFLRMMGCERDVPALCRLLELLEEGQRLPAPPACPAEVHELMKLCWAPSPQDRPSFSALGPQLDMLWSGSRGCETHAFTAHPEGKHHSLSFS

[5] = molecular target: T2, Syk (Homo sapiens, UniProt P43405); experiment: Human cell based assay against Syk; details: human cell based assays; read-out: half maximal effective concentration (EC50) against Syk
T2 construct: endogenous in cells

[6] = tested on: IL-1β; experiment: Other cytokine signaling (IL-1β); assay type: cell-based
[7] = tested on: TNFα; experiment: Other cytokine signaling (TNFα); assay type: cell-based
[8] = tested on: receptor tyrosine kinase (RTK); experiment: Receptor tyrosine kinase (RTK) signaling; assay type: cell-based
[9] = tested on: cell proliferation; experiment: Cell proliferation (broad inhibition); assay type: cell-based

Structure (SMILES): C#CCOc1ccc(Nc2nc(Nc3ccc(C)c(S(=O)(=O)NC(=O)CC)c3)ncc2F)cc1 [IV, 5-Fluoro-N2-[4-methyl-3-(N-propionylaminosulfonyl)phenyl]-N4-[4-(2-propynyloxy)phenyl]-2,4-pyrimidinediamine Potassium Salt]
IC50 ([1]; Homo sapiens, Ramos, read-out: Example 3 IC50, Ramos B cells, IL-4 50 units/mL, 20-24 hours, CD23 staining): 2.32 µM | IC50 ([2]; Homo sapiens, T-cell, 72 h): 5.56 µM

Structure (SMILES): C#CCOc1ccc(Nc2nc(Nc3ccc(C)c(S(=O)(=O)NC(=O)CC)c3)ncc2F)cc1 [V, 5-Fluoro-N2-[4-methyl-3-(N-propionylaminosulfonyl)phenyl]-N-4-[4-(2-propynyloxy)phenyl]-2,4-pyrimidinediamine Calcium Salt]
IC50 ([1]; Ramos B cells, IL-4 50 units/mL, 20-24 hours, CD23 staining, Calcium Salt, read-out: Example 3 IC50): 0.373 µM | IC50 [3]: 25.1 µM

Structure (SMILES): C#CCOc1ccc(Nc2nc(Nc3ccc(C)c(S(=O)(=O)NC(=O)CC)c3)ncc2F)cc1 [VII, 5-Fluoro-N2-[4-methyl-3-(N-propionylaminosulfonyl)phenyl]-N4-[4-(2-propynyloxy)phenyl]-2,4-pyrimidinediamine Choline Salt]
IC50 ([1]; Ramos B cells, IL-4 50 units/mL, 20-24 hours, CD23 staining, read-out: Example 3 IC50): 0.022 µM | IC50 ([2]; primary human T-cells, IL-2, 72 hours, ATP readout): 0.053 µM | IC50 [3]: 0.14 µM

EC50 [4]: ~0.18 µM | EC50 [5]: ~0.14 µM | activity on receptor tyrosine kinase (RTK) signaling [8]: little or no activity
Structure (SMILES): C#CCOc1ccc(Nc2nc(Nc3ccc(C)c(S(N)(=O)=O)c3)ncc2F)cc1 [Compound I, N2-(3-Aminosulfonyl-4-methylphenyl)-5-fluoro-N-4-[4-(prop-2-ynyloxy)phenyl]-2,4-pyrimidinediamine]
activity on other cytokine signaling (IL-1β) [6]: little or no activity | activity on other cytokine signaling (TNFα) [7]: little or no activity | inhibition of cell proliferation [9]: not a broad inhibitor of cell proliferation

Structure (SMILES): C#CCOc1ccc(Nc2nc(Nc3ccc(C)c(S(=O)(=O)NC(=O)CC)c3)ncc2F)cc1 [III, 5-fluoro-N2-(4-methyl-3-propionylaminosulfonylphenyl)-N-4-[4-(prop-2-ynyloxy)phenyl]-2,4-pyrimidinediamine mono-sodium salt]
IC50 ([1]; Ramos B cells, IL-4 50 units/mL, 20-24 hours, CD23 staining, mono-sodium salt, read-out: Example 3 IC50): 3.97 µM

Structure (SMILES): C#CCOc1ccc(Nc2nc(Nc3ccc(C)c(S(=O)(=O)NC(=O)CC)c3)ncc2F)cc1 [II, 5-fluoro-N2-(4-methyl-3-propionylaminosulfonylphenyl)-N-4-[4-(prop-2-ynyloxy)phenyl]-2,4-pyrimidinediamine]
IC50 ([1]; Homo sapiens, Ramos B cells, IL-4 50 units/mL, 20-24 hours, CD23 staining, read-out: Example 3 IC50): 9.65 µM

Reference: patent US8497279B2, “Treatment for discoid lupus” (Rigel Pharmaceuticals, Inc., priority 2011, dated 2013)
